# Source: US20160089439A1, “Prevention of Illicit Manufacutre of Methamphetamine from Pseudoephedrine Using Food Flavor Excipients” (Satara Pharmaceuticals, LLC, priority 2014, published 2016)
# How the values were obtained:
# [1] = Reaction of excipient and pseudoephedrine with red phosphorous and hydriodic acid, methamphetamine quantified; conditions: excipient 1.0 mmol + pseudoephedrine 1.0 mmol, 57% aqueous hydriodic acid, 90-100° C.; pseudoephedrine only = 100
# [2] = Reaction of excipient and pseudoephedrine with lithium in liquid ammonia, methamphetamine quantified; conditions: for Relative percentage of methamphetamine formation, Li—NH3 Reduction: excipient 1.0 mmol + pseudoephedrine 1.0 mmol, pseudoephedrine only = 100
# [3] = species and route not given; cited from earlier work
Compound,"Relative percentage of methamphetamine formation, P—HI Reduction [1]","Relative percentage of methamphetamine formation, Li—NH3 Reduction [2]",LD50 [3],"Inhibiting the conversion of pseudoephedrine to methamphetamine (in words) ([2]; summary of Table 1, both Li—NH3 and P—HI reductions)"
COc1nccnc1C [2-Methoxy-3-methylpyrazine],2.0%,<1%,,
CC(C)COC(=O)c1ccccc1N [Isobutyl anthranilate],2.3%,<1%,,
CCOc1cnc(C)cn1 [2-Ethoxy-5-methylpyrazine],15%,7%,,
"Cc1cnc(C)c(C)n1 [2,3,5-Trimethylpyrazine]",20%,8%,,
COc1nccnc1CC(C)C [2-Isobutyl-3-methoxypyrazine],27%,2%,,
CC(=O)c1nccs1 [2-Acetylthiazole],,<1%,,
CCOc1cncc(C)n1 [2-Ethoxy-6-methylpyrazine],13%,4%,,
CC(=O)c1cnccn1 [Acetylpyrazine],6%,<<1%,> 4000 mg/kg,most effective among all of the pyrazine derivatives tested
